Assays:
participants with SSc-RP [1] = assay: SHAQ - Visual Analog Scale - Pain; format: in vivo, human; conditions: pooled cilnidipine 10 mg and 20 mg arms (combination: + tadalafil 5 mg)
Description: (§1) The standard, validated, patient reported outcome measures tool for SSc patients, the Scleroderma Health Assessment Questionnaire (SHAQ), will be used to assess the participant qualify of life. Details are attached in the Appendix. The participant quality of life will be scored, and a disability index calculated for each questionnaire completed by the patient at Screening and each in-clinic visit. The absolute change in participant quality of life from baseline to the end of each dosing period will be calculated similar to frequency data as before.
(§2) The standard, validated, patient reported outcome measures tool for SSc patients, the SHAQ, was collected at the time points specified in the study schedules (FIG. 2 and FIGS. 4A and 4B) to assess the participant's quality of life. The SHAQ included a Raynaud's VAS that will also be reported separately.
Pain on the SHAQ outcome measure on the first line in table F is a composite of all pain experienced in patients with SSc, comprising joint pain, back pain, headache, odynophagia, skin ulcer related discomfort, Raynaud's, and neuropathic pain. Aisa Pharma believes, based on the biologic attributes and actions of cilnidipine that differ from most dihydropyridine calcium channel antagonists that cilnidipine might have direct analgesic effects in certain pain conditions and in fact has been designated to receive evaluation through the […] Preclinical Pain Screening Platform Program to investigate the drug in multiple in vitro and in vivo preclinical models of pain that are validated and predictive of effects in man.

participants with SSc-RP [2] = assay: SHAQ - Visual Analog Scale - Intestinal Problems; format: in vivo, human; parameters: Visual Analog Scale-Intestinal Problems, In Clinic Visit (Day 12), Mean / Visual Analog Scale-Intestinal Problems, In Clinic Visit (Day 12), Median / Visual Analog Scale-Intestinal Problems, Change from Baseline, Mean / Visual Analog Scale-Intestinal Problems, Change from Baseline, Median / SHAQ Visual Analogue Scale - Intestinal Problems, In-Clinic Visit (Day 12), Median: scale not given here
Description: as §1, §2

[3] = Any Cilnidipine (N = 17), Day 12, PP Population, Part A
[4] = Cilnidipine 10 mg, SSc patients, PP, Part A
[5] = Cilnidipine 20 mg, SSc patients, PP, Part A
[6] = Modified ITT Population-Part A, Day 12, dose cilnidipine 20 mg, tadalafil 5 mg, alone or combined as labelled
[7] = Modified ITT Population-Part A, dose cilnidipine 10 mg, tadalafil 5 mg, alone or combined as labelled

In the case of `COCCOC(=O)C1=C(C)NC(C)=C(C(=O)OC/C=C/c2ccccc2)C1c1cccc([N+](=O)[O-])c1` (centres unmarked) [Cilnidipine], the “VAS Pain Percent Change from Baseline Q1” value (participants with SSc-RP [1]) is reported as −53.33, %, the “VAS Pain Percent Change from Baseline Q3” value (participants with SSc-RP [1]) is reported as 0.00% and the “SHAQ Visual Analogue Scale - Intestinal Problems, Change from Baseline, Mean (SD)” value (participants with SSc-RP [2]; [3]) is reported as −0.556 (1.7427). For the same compound, the “SHAQ Visual Analogue Scale - Intestinal Problems, Change from Baseline, Median” value (participants with SSc-RP [2]; [3]) was −0.100, the “SHAQ Visual Analogue Scale - Intestinal Problems, In-Clinic Visit (Day 12), Mean (SD)” value (participants with SSc-RP [2]; [3]) was 1.121 (1.4119) and the “SHAQ Visual Analogue Scale - Intestinal Problems, In-Clinic Visit (Day 12), Median” value (participants with SSc-RP [2]; [3]) was 0.600. The “SHAQ Visual Analogue Scale - Intestinal Problems, Percent Change from Baseline, Mean (SD)” value (participants with SSc-RP [2]; [3]) was −18.65 (93.767) %, the “SHAQ Visual Analogue Scale - Intestinal Problems, Percent Change from Baseline, Median” value (participants with SSc-RP [2]; [3]) was −54.13% and the “SHAQ VAS Intestinal Problems, Change from Baseline, Max” value (participants with SSc-RP [2]; [4]) was 0.00. The “SHAQ VAS Intestinal Problems, Change from Baseline, Median” value (participants with SSc-RP [2]; [4]) was −1.550, the “SHAQ VAS Intestinal Problems, Change from Baseline, Min” value (participants with SSc-RP [2]; [4]) was −4.40, and the “SHAQ VAS Intestinal Problems, Change from Baseline, Q1” value (participants with SSc-RP [2]; [4]) was −3.700,. The “SHAQ VAS Intestinal Problems, Change from Baseline, Q3” value (participants with SSc-RP [2]; [4]) was −0.050, the “SHAQ VAS Intestinal Problems, Day 12, Max” value (participants with SSc-RP [2]; [4]) was 3.80 and the “SHAQ VAS Intestinal Problems, Day 12, Mean” value (participants with SSc-RP [2]; [4]) was 1.100. For the same compound, the “SHAQ VAS Intestinal Problems, Day 12, Median” value (participants with SSc-RP [2]; [4]) was 0.300, the “SHAQ VAS Intestinal Problems, Day 12, Min” value (participants with SSc-RP [2]; [4]) was 0.00, and the “SHAQ VAS Intestinal Problems, Day 12, Q1” value (participants with SSc-RP [2]; [4]) was 0.000,. The “SHAQ VAS Intestinal Problems, Day 12, Q3” value (participants with SSc-RP [2]; [4]) was 2.200, the “SHAQ VAS Intestinal Problems, Percent Change from Baseline, Max” value (participants with SSc-RP [2]; [4]) was −44.1 and the “SHAQ VAS Intestinal Problems, Percent Change from Baseline, Median” value (participants with SSc-RP [2]; [4]) was −88.00. For the same compound, the “SHAQ VAS Intestinal Problems, Percent Change from Baseline, Min” value (participants with SSc-RP [2]; [4]) was −100.0,, the “SHAQ VAS Intestinal Problems, Percent Change from Baseline, Q1” value (participants with SSc-RP [2]; [4]) was −100.00, and the “SHAQ VAS Intestinal Problems, Percent Change from Baseline, Q3” value (participants with SSc-RP [2]; [4]) was −44.12. The “SHAQ VAS Intestinal Problems, Change from Baseline, Max” value (participants with SSc-RP [2]; [5]) was 0.60, the “SHAQ VAS Intestinal Problems, Change from Baseline, Mean” value (participants with SSc-RP [2]; [5]) was 0.150 and the “SHAQ VAS Intestinal Problems, Change from Baseline, Median” value (participants with SSc-RP [2]; [5]) was 0.150. For the same compound, the “SHAQ VAS Intestinal Problems, Change from Baseline, Min” value (participants with SSc-RP [2]; [5]) was −0.30,, the “SHAQ VAS Intestinal Problems, Change from Baseline, Q1” value (participants with SSc-RP [2]; [5]) was −0.150, and the “SHAQ VAS Intestinal Problems, Change from Baseline, Q3” value (participants with SSc-RP [2]; [5]) was 0.450. The “SHAQ VAS Intestinal Problems, Day 12, Max” value (participants with SSc-RP [2]; [5]) was 2.10, the “SHAQ VAS Intestinal Problems, Day 12, Mean” value (participants with SSc-RP [2]; [5]) was 0.850 and the “SHAQ VAS Intestinal Problems, Day 12, Median” value (participants with SSc-RP [2]; [5]) was 0.650. For the same compound, the “SHAQ VAS Intestinal Problems, Day 12, Min” value (participants with SSc-RP [2]; [5]) was 0.00,, the “SHAQ VAS Intestinal Problems, Day 12, Q1” value (participants with SSc-RP [2]; [5]) was 0.000, and the “SHAQ VAS Intestinal Problems, Day 12, Q3” value (participants with SSc-RP [2]; [5]) was 1.700. The “SHAQ VAS Intestinal Problems, Percent Change from Baseline, Max” value (participants with SSc-RP [2]; [5]) was 40.0, the “SHAQ VAS Intestinal Problems, Percent Change from Baseline, Mean” value (participants with SSc-RP [2]; [5]) was −10.00 and the “SHAQ VAS Intestinal Problems, Percent Change from Baseline, Min” value (participants with SSc-RP [2]; [5]) was −100.0,. For the same compound, the “SHAQ VAS Intestinal Problems, Percent Change from Baseline, Q1” value (participants with SSc-RP [2]; [5]) was −100.00,, the “SHAQ VAS Intestinal Problems, Percent Change from Baseline, Q3” value (participants with SSc-RP [2]; [5]) was 40.00 and the “SHAQ Intestinal Difficulty, mean % change” value (participants with SSc-RP [2]; Cilnidipine, pooled, n = 7 (in column Cilnidipine 20 mg), minus = improvement, Table A*) was −45% (pooled,. The “Visual Analog Scale-Intestinal Problems, Percent Change from Baseline, Median” value (participants with SSc-RP [2]; Modified ITT Population-Part A, Day 12, dose cilnidipine 10 mg, tadalafil 5 mg, alone or combined as labelled) was −88.00%, the “Visual Analog Scale-Intestinal Problems, Change from Baseline, Mean” value (participants with SSc-RP [2]; [6]) was 0.300 and the “Visual Analog Scale-Intestinal Problems, Change from Baseline, Median” value (participants with SSc-RP [2]; [6]) was 0.300. The “Visual Analog Scale-Intestinal Problems, Percent Change from Baseline, Mean” value (participants with SSc-RP [2]; [6]) was 35.00%, the “Visual Analog Scale-Intestinal Problems, Percent Change from Baseline, Median” value (participants with SSc-RP [2]; [6]) was 35.00% and the “Visual Analog Scale-Intestinal Problems, In Clinic Visit (Day 12), Mean” value (participants with SSc-RP [2]; [7]) was 1.100. For the same compound, the “Visual Analog Scale-Intestinal Problems, In Clinic Visit (Day 12), Median” value (participants with SSc-RP [2]; [7]) was 0.300 and the “Visual Analog Scale-Intestinal Problems, In Clinic Visit (Day 12), Median” value (participants with SSc-RP [2]; Modified ITT Population-Part A, dose cilnidipine 20 mg, tadalafil 5 mg, alone or combined as labelled) was 1.300.

— patent US20240358692A1, “TREATMENT OF SCLERODERMA” (Aisa Pharma, Inc., priority 2023, published 2024)
